# Data published in paper PMC5814047, “Peptidic inhibitors of insulin-degrading enzyme with potential for dermatological applications discovered via phage display” (PLoS ONE, 2018).
# Bridge positions count the residues as written; N and C are the ends. Peptide text beside a SMILES is read from it.
# Columns and labels:
# IDE [1] = target: T1, IDE (Homo sapiens, UniProt P14735); test: biochemical; details: for IC50 <500 uM?: initial test at 500 uM; for remaining activity at 500 µM: N 4, read-out: Percent activity at 500 uM, Mean
# T1 construct: made in house; host or cells: bacteria
# T1 sequence (P14735 1-1019): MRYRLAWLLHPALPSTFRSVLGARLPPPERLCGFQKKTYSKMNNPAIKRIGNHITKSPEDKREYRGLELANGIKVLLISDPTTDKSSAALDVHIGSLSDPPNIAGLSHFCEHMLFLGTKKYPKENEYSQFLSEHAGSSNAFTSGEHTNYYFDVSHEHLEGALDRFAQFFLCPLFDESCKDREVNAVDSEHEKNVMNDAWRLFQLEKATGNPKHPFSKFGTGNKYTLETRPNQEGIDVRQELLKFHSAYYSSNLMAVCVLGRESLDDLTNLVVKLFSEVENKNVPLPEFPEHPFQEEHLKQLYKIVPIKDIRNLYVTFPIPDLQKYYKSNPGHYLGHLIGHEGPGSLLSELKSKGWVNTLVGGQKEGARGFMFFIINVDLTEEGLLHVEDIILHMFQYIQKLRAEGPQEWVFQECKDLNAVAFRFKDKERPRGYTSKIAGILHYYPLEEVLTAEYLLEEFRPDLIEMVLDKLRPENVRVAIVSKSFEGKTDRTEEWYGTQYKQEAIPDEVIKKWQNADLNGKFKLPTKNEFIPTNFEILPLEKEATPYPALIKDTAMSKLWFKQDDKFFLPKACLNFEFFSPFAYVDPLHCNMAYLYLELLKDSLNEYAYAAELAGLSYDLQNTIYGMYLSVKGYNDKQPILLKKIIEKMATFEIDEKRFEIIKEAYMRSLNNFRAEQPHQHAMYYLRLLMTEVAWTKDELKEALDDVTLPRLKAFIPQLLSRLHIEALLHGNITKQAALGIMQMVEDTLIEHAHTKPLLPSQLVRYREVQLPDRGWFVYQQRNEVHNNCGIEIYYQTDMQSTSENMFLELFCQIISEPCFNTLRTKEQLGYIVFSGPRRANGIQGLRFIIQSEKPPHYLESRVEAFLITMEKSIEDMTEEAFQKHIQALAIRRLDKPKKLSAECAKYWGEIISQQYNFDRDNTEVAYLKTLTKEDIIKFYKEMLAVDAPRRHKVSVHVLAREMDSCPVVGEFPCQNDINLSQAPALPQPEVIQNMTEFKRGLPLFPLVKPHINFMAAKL
# Procedure, shortened: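 Recombinant human IDE (1 nM, bacterially expressed) degraded FRET1 substrate (5 μM), fluoresceinated biotinylated amyloid β (500 nM) or human insulin (50 nM) in PBS with 0.05% BSA. Peptides tested included N-acetylated and C-amidated variants.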
# IDE [2] = target: T1, IDE; test: Vulnerability of peptides to degradation by IDE: 0 vs 4 h pre-incubation, then FRET1 assay; format: biochemical; details: 4 h, 4-hr incubation, relative to DMSO-only controls, individual runs, read-out: Percent Activity (normalized initial velocity of FRET1 hydrolysis); for remaining activity at 0.12207 µM: Cmpd 0.12207 uM; for remaining activity at 0.488281 µM: Cmpd 0.488281 uM; for remaining activity at 1.95312 µM: Cmpd 1.95312 uM; for remaining activity at 7.8125 µM: Cmpd 7.8125 uM; for remaining activity at 31.25 µM: Cmpd 31.25 uM; for remaining activity at 125 µM: Cmpd 125 uM; for remaining activity at 500 µM: Cmpd 500 uM
# Procedure, shortened: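 Recombinant human IDE (1 nM, bacterially purified) degrading FRET1 substrate Mca-peptide-Dnp (5 μM) in PBS with 0.05% BSA; peptides pre-incubated 0 or 4 h before assay. Fluorescence monitored as degradation read-out.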
# [3] = dose-response, individual runs, read-out: Percent Activity (normalized source data)
# [4] = dose-response, 125 uM, individual runs, read-out: Percent Activity (normalized source data)
# [5] = initial test, percent of initial velocity relative to DMSO-only controls
remaining activity at 0.12207 µM (IDE [1]; [3]) [%],remaining activity at 0.488281 µM (IDE [1]; [3]) [%],remaining activity at 1.95312 µM (IDE [1]; [3]) [%],remaining activity at 7.8125 µM (IDE [1]; [3]) [%],remaining activity at 31.25 µM (IDE [1]; [3]) [%],remaining activity at 125 µM (IDE [1]; [4]) [%],IC50 <500 uM? (IDE [1]),remaining activity at 500 µM (IDE [1]; [5]) [%],remaining activity at 500 µM (IDE [1]; judged as IC50 <100 uM?) [%],remaining activity at 0.12207 µM (IDE [2]) [%],remaining activity at 0.488281 µM (IDE [2]) [%],remaining activity at 1.95312 µM (IDE [2]) [%],remaining activity at 7.8125 µM (IDE [2]) [%],remaining activity at 31.25 µM (IDE [2]) [%],remaining activity at 125 µM (IDE [2]) [%],remaining activity at 500 µM (IDE [2]) [%],Compound,other results
91.1,84.5,84.4,65.6,34.6,11,YES,2,13.9,106,99.5,95.9,104,70.9,8.98,1.55,CC(C)C[C@H](NC(=O)[C@H](CO)NC(=O)[C@@H](N)CCC(N)=O)C(=O)N1CCC[C@H]1C(=O)N[C@@H](Cc1c[nH]c2ccccc12)C(=O)N[C@H]1CSSC[C@@H](C(=O)N[C@H](C(=O)N[C@H](C(=O)O)[C@@H](C)O)C(C)C)NC(=O)[C@H](Cc2c[nH]cn2)NC(=O)[C@@H]2CCCN2C(=O)[C@H](Cc2ccc(O)cc2)NC1=O [P12-3] (H-QSLPWCYPHCVT-OH; disulfide 6-10 (inferred)),–
87.1,82.8,78.7,74,40.2,9.83,YES,3.6,17.1,101,96.2,95.5,93.1,87.4,7.45,0.698,CC(C)C[C@H](NC(=O)[C@H](CO)NC(=O)[C@@H](N)CCC(N)=O)C(=O)N1CCC[C@H]1C(=O)N[C@@H](Cc1c[nH]c2ccccc12)C(=O)N[C@H]1CSSC[C@@H](C(=O)N[C@H](C(=O)N[C@H](C(N)=O)[C@@H](C)O)C(C)C)NC(=O)[C@H](Cc2c[nH]cn2)NC(=O)[C@@H]2CCCN2C(=O)[C@H](Cc2ccc(O)cc2)NC1=O [P12-3A] (H-QSLPWCYPHCVT-NH2; disulfide 6-10 (inferred)),"remaining activity at 0.0005 µM (IDE [1]; FRET1, P12-3A 0.0005 uM, Replicates 4-6, read-out: Percent Activity (normalized source data)): 109%; remaining activity at 0.0016 µM (IDE [1]; FRET1, P12-3A 0.0016 uM, Replicates 4-6, read-out: Percent Activity (normalized source data)): 115%; remaining activity at 0.005 µM (IDE [1]; FRET1, P12-3A 0.005 uM, Replicates 4-6, read-out: Percent Activity (normalized source data)): 119%; remaining activity at 0.05 µM (IDE [1]; FRET1, P12-3A 0.050 uM, Replicates 4-6, read-out: Percent Activity (normalized source data)): 134%; remaining activity at 0.12 µM (IDE [1]; FRET1, P12-3A 0.12 uM, Replicates 1-3, read-out: Percent Activity (normalized source data)): 81.6%; remaining activity at 0.24 µM (IDE [1]; FRET1, P12-3A 0.24 uM, Replicates 1-3, read-out: Percent Activity (normalized source data)): 82.7%; remaining activity at 0.49 µM (IDE [1]; FRET1, P12-3A 0.49 uM, Replicates 1-3, read-out: Percent Activity (normalized source data)): 73.4%; remaining activity at 0.98 µM (IDE [1]; FRET1, P12-3A 0.98 uM, Replicates 1-3, read-out: Percent Activity (normalized source data)): 62.8%; remaining activity at 3.91 µM (IDE [1]; FRET1, P12-3A 3.91 uM, Replicates 1-3, read-out: Percent Activity (normalized source data)): 45.2%; remaining activity at 7.81 µM (IDE [1]; FRET1, P12-3A 7.81 uM, Replicates 1-3, read-out: Percent Activity (normalized source data)): 33%; remaining activity at 15.6 µM (IDE [1]; FRET1, P12-3A 15.6 uM, Replicates 1-3, read-out: Percent Activity (normalized source data)): 38.9%; remaining activity at 16 µM (IDE [1]; FRET1, P12-3A 16 uM, Replicates 4-6, read-out: Percent Activity (normalized source data)): 45.2%; remaining activity at 31.2 µM (IDE [1]; FRET1, P12-3A 31.2 uM, Replicates 1-3, read-out: Percent Activity (normalized source data)): 30.6%; remaining activity at 50 µM (IDE [1]; FRET1, P12-3A 50 uM, Replicates 4-6, read-out: Percent Activity (normalized source data)): 31.6%; remaining activity at 62.5 µM (IDE [1]; FRET1, P12-3A 62.5 uM, Replicates 1-3, read-out: Percent Activity (normalized source data)): 23.7%; remaining activity at 125 µM (IDE [1]; FRET1, P12-3A 125 uM, Replicates 1-3, read-out: Percent Activity (normalized source data)): 20.1%; remaining activity at 158 µM (IDE [1]; FRET1, P12-3A 158 uM, Replicates 4-6, read-out: Percent Activity (normalized source data)): 23.8%; remaining activity at 250 µM (IDE [1]; FRET1, P12-3A 250 uM, Replicates 1-3, read-out: Percent Activity (normalized source data)): 10.4%"
